{"source": "patent US8790712B2", "about": "“Constitutional function-improving agents” (Cosmo Oil Co., Ltd., priority 2004, dated 2014)", "key": {"[1]": {"tested_on": "Mice (35 to 45 weeks old, BALB/cAJc1)", "test": "Thymus weight of aged mice after 7 days oral ALA hydrochloride (Example 1)", "assay_type": "in vivo, mouse", "details": "10 mg/kg ALA hydrochloride orally once a day for 7 days, average of 5", "procedure": "Mice (35 to 45 weeks old, BALB/cAJc1) preliminary raised for 1 week were injected with 10 mg of 5-aminolevulinic acid (hereinafter referred to as “ALA”) hydrochloride per kg mouse body weight once a day for 7 days continuously. ALA hydrochloride was adjusted to a concentration of […] with distilled water and orally administered to the mice. After the test, each mouse was sacrificed and the weight of its thymus was measured. The test was carried out using 5 mice per 1 plot, and their values were shown by average value."}, "ddY-N mouse": {"tested_on": "ddY-N mouse", "test": "Body weight gain of young mice over 28 days of administration (Example 7)", "assay_type": "in vivo", "procedure": "A total of 120 animals (60 animals for each of male and female) of about 4 weeks old of ddY-N mouse produced by Nippon Ikagaku Dobutsu Shizai Kenkyusho Co., Ltd. was purchased and subjected to 1 week of medical inspection to confirm that their healthy state is normal, and then used in the test. The test plots were set to a total of 4 plots of a control plot in which distilled water for injection is administered into the stomach using a stomach tube at a ratio of 10 ml per 1 kg body weight of the mouse to be tested for 28 continuous days, and 3 test plots in which ALA hydrochloride is administered in the same manner at respective ratios of 5 mg, 10 mg and 25 mg per 1 kg body weight of the mouse to be tested. The mice to be tested were divided into 12 groups, 1 group including 5 males or females, in such a manner that average body weight of each group became almost uniform, and 3 groups of males or females were allotted to each plot and raised for 28 days. The mice to be tested were raised by each group using a series of five stainless steel cages arranged in a raising room set to a room temperature of 23.0±2.0° C. and an irradiation time of 12 hours/day. Body weight gain was calculated by measuring individual body weight at intervals of 1 week from the start of the test."}, "[2]": {"tested_on": "broiler primary chicks (Chunky)", "test": "Body weight of broiler chicks fed ALA hydrochloride for 7 weeks (Example 9)", "assay_type": "in vivo, chick", "description": "(§1) A total of 300 chicks, 150 chicks for females and males respectively, of broiler primary chicks (Chunky) were purchased. After the purchase, chicks having abnormality (weakness or dwarf) were excluded, and the rest were equipped with wing belts for individual identification and their body weights were individually measured. […] Using 15 female or male chicks (30 chicks in total) as 1 group, they were put into a Chick Gird arranged in a closed type barn, and warmed by arranging an infrared ray lamp for animal use. The Chick Gird was expanded along with the growth of chicks. The feed and drinking water were constantly provided. The test groups were set to a total of 3 groups containing a control group in which a control feed (a standard testing feed SDB No. 1 was used from the neonatal to 3 weeks old, or a standard testing feed SDB No. 2 from 3 weeks old to 7 weeks old, (both manufactured by Nippon Formula Feed Mfg Co., Ltd., Table 9) without adding ALA hydrochloride is provided, and 2 test groups of ALA-10 ppm treated group and ALA-50 ppm treated group in which 10 ppm or 50 ppm of ALA hydrochloride is added to the feed and provided, and 3 repetition plots were arranged for each group. The number of chicks to be tested in each test group was as shown in Table 10. The test period was set to 7 weeks (7 weeks old) from the neonatal (start of the added feed provision), and total body weight of females or males was measured for each repetition plot at the time of the neonatal and at intervals of 1 week thereafter. In addition, about 2 ml of blood was collected from a brachial vein (basilic vein) of each of 18 chicks (3 female or male chicks/repetition) of each group at 3 weeks old and 7 weeks old, and about 1.5 ml thereof was subjected to a coagulation preventing treatment using heparin-lithium salt and then the blood plasma was separated to inspect the items of LDH, GOT (AST), γ-GTP, ALP, total protein, albumin, globulin, total cholesterol, triglyceride, glucose, uric acid, total bilirubin, uric acid, creatinine, calcium and inorganic phosphorus."}, "[3]": {"tested_on": "γ-GTP (gamma glutamyl transpeptidase)", "test": "Blood plasma γ-GTP of broiler chicks (Example 9)", "assay_type": "in vivo, chick", "description": "as §1"}, "[4]": {"details": "ALA-treated groups, 10 ppm or 50 ppm in feed, 7 weeks"}}}
{"smiles": "NCC(=O)CCC(=O)O", "note": "[ALA, 5-aminolevulinic acid]", "values": [{"measurement": "Thymus", "setting": "[1]; female mice", "result": 0.038, "unit": "g"}, {"measurement": "Thymus", "setting": "[1]; male mice", "result": 0.035, "unit": "g"}, {"measurement": "Growth (growth curves, body weight gain)", "setting": "ddY-N mouse; 10 mg/kg into the stomach for 28 days, compared with control, 5 mg/kg and 25 mg/kg plots, averages of males and females", "result": "superior growth than other 3 plots"}, {"measurement": "Health state", "setting": "ddY-N mouse; ALA-treated groups, 5, 10 and 25 mg/kg for 28 days", "result": "abnormal health state was not fund"}, {"measurement": "Growth (g), body weight", "setting": "[2]; 10 ppm in feed, 1 week", "result": 166.3, "unit": "g"}, {"measurement": "Growth (g), body weight", "setting": "[2]; 10 ppm in feed, 2 week", "result": 442.0, "unit": "g"}, {"measurement": "Growth (g), body weight", "setting": "[2]; 10 ppm in feed, 3 week", "result": 817.2, "unit": "g"}, {"measurement": "Growth (g), body weight", "setting": "[2]; 10 ppm in feed, 4 week", "result": 1402.7, "unit": "g"}, {"measurement": "Growth (g), body weight", "setting": "[2]; 10 ppm in feed, 5 week", "result": 2063.9, "unit": "g"}, {"measurement": "Growth (g), body weight", "setting": "[2]; 10 ppm in feed, 6 week", "result": 2736.4, "unit": "g"}, {"measurement": "Growth (g), body weight", "setting": "[2]; 10 ppm in feed, 7 week", "result": 3420.9, "unit": "g"}, {"measurement": "Growth (g), body weight", "setting": "[2]; 10 ppm in feed, neonatal", "result": 37.8, "unit": "g"}, {"measurement": "Growth (g), body weight", "setting": "[2]; 50 ppm in feed, 1 week", "result": 169.1, "unit": "g"}, {"measurement": "Growth (g), body weight", "setting": "[2]; 50 ppm in feed, 2 week", "result": 436.8, "unit": "g"}, {"measurement": "Growth (g), body weight", "setting": "[2]; 50 ppm in feed, 3 week", "result": 807.7, "unit": "g"}, {"measurement": "Growth (g), body weight", "setting": "[2]; 50 ppm in feed, 4 week", "result": 1400.8, "unit": "g"}, {"measurement": "Growth (g), body weight", "setting": "[2]; 50 ppm in feed, 5 week", "result": 2036.7, "unit": "g"}, {"measurement": "Growth (g), body weight", "setting": "[2]; 50 ppm in feed, 6 week", "result": 2731.5, "unit": "g"}, {"measurement": "Growth (g), body weight", "setting": "[2]; 50 ppm in feed, 7 week", "result": 3403.3, "unit": "g"}, {"measurement": "Growth (g), body weight", "setting": "[2]; 50 ppm in feed, neonatal", "result": 37.7, "unit": "g"}, {"measurement": "General conditions during the test period", "setting": "[2]; [4]", "result": "no abnormality was found in the general conditions"}, {"measurement": "Raising ratio and pathologic autopsy findings", "setting": "[2]; [4]", "result": "an abnormality considered to be due to its addition was not found"}, {"measurement": "γ-GTP (IU/l)", "setting": "[3]; 10 ppm in feed, 3 weeks old", "result": 29.7, "unit": "IU/l"}, {"measurement": "γ-GTP (IU/l)", "setting": "[3]; 10 ppm in feed, 7 weeks old", "result": 29.7, "unit": "IU/l"}, {"measurement": "γ-GTP (IU/l)", "setting": "[3]; 50 ppm in feed, 3 weeks old", "result": 30.0, "unit": "IU/l"}, {"measurement": "γ-GTP (IU/l)", "setting": "[3]; 50 ppm in feed, 7 weeks old", "result": 32.7, "unit": "IU/l"}]}
